Assays:
[1] = tested on: RKO cell line; experiment: Annexin V-PI apoptosis assay; type: cell-based; conditions: TRE 10 μM, ENC 100 nM, BIN 100 nM, 72 hours, TRE vs DMSO
Experimental: (§1) Thereafter, the cells were collected, washed with PBS, and stained with Annexin V and PI using Annexin V-FITC Apoptosis Detection Kit (Nakalai Tesque). Apoptotic cells were detected using CytoFLEX LX. A proportion of cells positive for Annexin V was calculated as a proportion of apoptotic cells. The above was performed three times as an independent experiment. Student's test was used for a significant difference test.

[2] = tested on: HT29 cell line; experiment: Annexin V-PI apoptosis assay; type: cell-based; conditions: TRE 10 μM, ENC 10 nM, BIN 10 nM, 72 hours, TRE vs DMSO
Experimental: as §1

[3] = tested on: HT29 cell line; experiment: Subcutaneous transplanted tumor mouse model (Test Example 13); type: in vivo
Experimental: The in vivo antitumor effect and toxicity generated by combined use of a compound acting on a retinoid receptor, a BRAF inhibitor, an MEK inhibitor, and an anti-EGFR antibody, or a BRAF inhibitor and an anti-EGFR antibody were evaluated by a mouse model subcutaneous transplanted with a HT29 cell line.
Female nude mice (BALB/c-nu) were purchased from The Jackson Laboratory Japan, and raised in a specific pathogen-free environment. The cultured HT29 cell line was collected with trypsin, and a culture medium and a Corning Matrigel basement membrane matrix (Corning) were mixed at a volume ratio of 1:1 so as to reach 1×10^7 cells/mL, followed by suspension. Into a left abdominal region of each mouse was subcutaneously implanted 0.1 mL of cell suspension. When tumor volumes reached 150 mm^3 to 200 mm^3, mice were randomly divided into a vehicle group, a TRE single group, an ENC+CET group, a three-drug combination (TRE+ENC+CET) group including TRE and ENC+CET, an ENC+BIN+CET group, or a four-drug combination (TRE+ENC+BIN+CET) group including TRE and ENC+BIN+CET. TRE, ENC, and BIN were dissolved in Corn oil (FUJIFILM Wako Pure Chemical Industries, Ltd.), and further subjected to ultrasonic treatment using Bioruptor UCW-310 (Sonicbio. Co. Ltd.) to prepare a drug solution. ENC, BIN, and TRE were orally administrated by force once a day for 28 days at doses of 5 mg/kg, 1.75 mg/kg, and 10 mg/kg, respectively. […] The tumor size and the body weight were measured every three days from the start of the therapy. […]
Subsequently, in order to evaluate the influence of the combined use of TRE and ENC+BIN+CET or ENC+CET on in vivo tumor proliferation, a Ki-67 labeling index was calculated using a resected tumor at the end of the therapy.
Specifically, tumors were extracted from 4 to 6 mice randomly selected from each therapy group. […] Five fields of view for a central part of the tumor without tumor necrosis were selected, and 500 or more cells in total were counted in each group. The Ki-67 labeling index was calculated as the number of Ki-67 positive cells/the total number of cells.

[4] = tested on: cleaved PARP in RKO cell line; experiment: Western blot of cleaved PARP under RARα or RXRα knockdown; type: cell-based
Experimental: To the collected cells were added Radioimmunoprecipitation assay buffer (composition: 50 mM Tris-HCL, pH 8.0, 150 mM Sodium Chloride, 0.5 w/v % Sodium Deoxycholate, 0.1 w/v % Sodium Dodecyl Sulfate, 1.0 w/v % NP-40 substitute) supplemented with Halt Protease Inhibitor Cocktail (Thermo Fisher Scientific Inc.), followed by dissolving the cells, and a protein was extracted. The extracted protein was quantified by a bicinchoninic acid method. A protein sample in an amount of 5 μg was separated by polyacrylamide electrophoresis, and the separated protein sample was transferred to Polyvinylidene difluoride membrane (PVDF membrane, Merck Millipore Ltd.), followed by blocking with Odyssey Blocking Buffer (Licor Inc.) for 1 hour at room temperature. Thereafter, the PVDF membrane after transfer was immersed in a primary antibody solution, followed by culturing at room temperature for 2 hours or at 4° C. overnight. After the primary antibody reaction, the PVDF membrane was washed with Tris Buffered Saline with Tween 20 (TBS-T) for 5 minutes at room temperature for three times and immersed in a secondary antibody, followed by incubating at room temperature for 1 hour. As the secondary antibody, Goat anti-Rabbit IgG (H+L) Highly Cross-Adsorbed Secondary Antibody Alexa Fluor680 (Thermo Fisher Scientific Inc.) and Goat anti-Mouse IgG (H+L) Highly Cross-Adsorbed Secondary Antibody Alexa Fluor680 (Thermo Fisher Scientific Inc.) were used at a dilution ratio of 1:1000. Thereafter, washing with TBS-T for 5 minutes was performed three times, and a measurement of signals was performed using an Odyssey Infrared Imaging System (Licor Inc.). […] The above was performed three or more times as independent experiments. Student's test was used for a significant difference test.

For `CC1=C(/C=C/C(C)=C/C=C/C(C)=C/C(=O)O)C(C)(C)CCC1` [ATRA, all-trans retinoic acid], the “apoptotic cell proportion (Annexin V positive)” value [1] was “no significant change”, the “apoptotic cell proportion (Annexin V positive)” value [2] was “no significant change” and the “mouse body weights depending on the presence or absence of TRE” value ([3]; 28 days after the therapy) was “no significant difference”. The tumor volume ([3]; 28 days from the start of the therapy, ENC 5 mg/kg, BIN 1.75 mg/kg, TRE 10 mg/kg oral once a day, CET 20 mg/kg i.p. twice a week) was 1156 mm^3, the Ki-67 labeling index ([3]; resected tumor at the end of the therapy, TRE vs vehicle, combinations vs same group without TRE) was “No significant difference” and the “enhancement by TRE of expression level of cleaved PARP caused by ENC+BIN” value ([4]; RARα inhibited) was “about 8 times”. For the same molecule, the “enhancement by TRE of expression level of cleaved PARP caused by ENC+BIN+CET” value (shortened to “enhancement by TRE … by ENC+BIN+CET”) ([4]; RARα inhibited) was “about 3 times”, the “enhancement by TRE of expression level of cleaved PARP caused by ENC+BIN” value ([4]; RXRα inhibited) was “about 1.5 times” and the “enhancement by TRE … by ENC+BIN+CET” value ([4]; RXRα inhibited) was “about 2 times”. The “enhancement by TRE of expression level of cleaved PARP caused by ENC+BIN” value ([4]; si-NC) was “about 13 times” and the “enhancement by TRE … by ENC+BIN+CET” value ([4]; si-NC) was “about 11 times”.

— patent publication US20250108051A1, “THERAPEUTIC AGENT FOR CANCER” (TOHOKU UNIVERSITY, priority 2022, published 2025)
